{
  "source": "patent US20120208776A1",
  "about": "(priority 2002, published 2012)",
  "key": {"MDA-MB-453 cells [1]": {"system": "MDA-MB-453 cells", "assay": "Cell-cycle analysis by DNA flow cytometry", "assay_type": "cell-based, human", "conditions": "48 hrs", "description": "(§1) Synchrony: To synchronize the cells, 3×10^5 cells were plated onto 10 cm dishes and grown for 2 days in DMEM supplemented with 10% fetal bovine serum.\n(§2) After incubation for 1-3 days, the supernatant was collected, and the cells were trypsinized, collected, and washed with phosphate buffered saline (PBS) containing 5% FBS. Cell pellets were re-suspended in 1 ml of PBS plus 5% FBS. Thereafter, 5 ml of 70% ethanol were added drop-wise, while vortexing the tube, and the mixture was stored at 4° C. Cells were centrifuged, washed with PBS plus 5% FBS, and re-suspended in 400 μl of propidium iodide (0.1 mg/ml) (Sigma Chemical Co.). 400 μl (2 mg/ml) of RNase (Sigma Chemical Co.) were added, and the cells were incubated in the dark at room temperature for 30 min."}, "MCF7 cells [2]": {"system": "MCF7 cells", "assay": "Cell proliferation, cell count (Coulter Counter)", "assay_type": "cell-based, human", "conditions": "for IC50: MCF7 cells, 96 h"}, "MCF7 cells [3]": {"system": "MCF7 cells", "assay": "Cell-cycle analysis by DNA flow cytometry", "assay_type": "cell-based, human", "conditions": "about 40 μg/ml", "description": "as §1, §2"}, "MDA-MB-453 cells [4]": {"system": "MDA-MB-453 cells", "assay": "Cell proliferation, cell count (Coulter Counter)", "conditions": "MDA-MB-453 (FIG. 10)", "quoted_text": "For the cell count assay, breast cancer cells were seeded, in triplicate, at 2×10^4 cells per well, in 24- or 96-well plates.\n(§3) For the Coulter counter assay, cells were seeded at 2×10^4 cells per well in 24 well plates (0.875 cm diameter) as described previously. […] Control and treated cells were compared using the student's t-test (p<0.05). For cell cycle analysis the cells were plated (3×10^5) onto 6 cm dishes and allowed to attach for 24 hours. […] After 24 hours the cells were analyzed by DNA flow cytometry, as described previously."}, "MDA-MB-453 cells [5]": {"system": "MDA-MB-453 cells", "assay": "Combination with chemotherapy agents, cell count, combination index (CI)", "assay_type": "cell-based, human"}, "Na^+-K^+-ATPase": {"system": "Na^+-K^+-ATPase", "assay": "Enzymatic assay of adenosine 5′-triphosphatase", "assay_type": "biochemical", "conditions": "20 μM", "description": "Enzymatic assay of adenosine 5′-triphosphatase. The enzymatic assay of ATPase (adenosine 5′-triphosphatase, EC 3.6.1.3) followed the Sigma Prod. […] [P] was determined by the Taussky-Shorr method."}, "MDA-MB-453 cells [6]": {"system": "MDA-MB-453 cells", "assay": "Combination of agents, MTT assay, combination index", "description": "Calculating the Combination Index. To determine the Combination Index (CI), 1) the Na^+-K^+-ATPase enzyme or 2) MDA-MB-453 cells were exposed to all combinations of 3, 4 or 5 concentrations of each of the agents tested and a solvent control. […] The results of the enzymatic assay of ATPase or MTT assay were analyzed for possible synergistic effects using the median effect principle. Variable ratios of drugs were employed and mutually exclusive equations were assumed.\nCalculating the Combination Index.\nThe simvastatin was obtained from Sigma of St. Louis, Mo. The concentrations tested in the present example were 0, 0.2, 2, 5, and 20 μg/ml actein and 0, 0.8, 4, 20 and 40 μg/ml simvastatin."}, "[7]": {"target": "NTPase/helicase of hepatitis C virus (Hepatitis C virus genotype 1a, UniProt P27958)", "sequence (P27958 1203-1364)": "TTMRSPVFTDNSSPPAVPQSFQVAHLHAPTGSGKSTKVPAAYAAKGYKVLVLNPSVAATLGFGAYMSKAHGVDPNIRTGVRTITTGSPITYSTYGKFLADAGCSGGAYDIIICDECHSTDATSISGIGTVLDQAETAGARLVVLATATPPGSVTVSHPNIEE", "conditions": "competitive inhibition of ATP binding; cited from earlier work"}, "MDA-MB-453 cells [8]": {"system": "MDA-MB-453 cells", "assay": "MTT assay, 96 hours", "assay_type": "cell-based, human", "conditions": "Homo sapiens, MTT, 96 h, read-out: IC50", "quoted_text": "as §3"}, "[9]": {"conditions": "value in parentheses, read-out: IC50"}},
  "note": "Like-named read-outs stand apart in the source and are kept apart here.",
  "data": [
    {"molecule": "25-acetyl-7,8-didehydrocimigenol 3-O-β-D-xylopyranoside", "values": [
      {"measurement": "solubility", "setting": "Solubility (observation)", "value": "sufficiently soluble"}
    ]},
    {"molecule": "O=c1[nH]cc(F)c(=O)[nH]1", "note": "[5-FU, 5-fluorouracil, reference compound]", "values": [
      {"measurement": "G1 (%)", "setting": "MDA-MB-453 cells [1]; (c) 5-FU 0.02 μg/mL", "value": 28.9, "unit": "%"},
      {"measurement": "G2/M (%)", "setting": "MDA-MB-453 cells [1]; (c) 5-FU 0.02 μg/mL", "value": 20.3, "unit": "%"},
      {"measurement": "S (%)", "setting": "MDA-MB-453 cells [1]; (c) 5-FU 0.02 μg/mL", "value": 47.6, "unit": "%"},
      {"measurement": "Sub G1 (%)", "setting": "MDA-MB-453 cells [1]; (c) 5-FU 0.02 μg/mL", "value": "3.", "unit": "%"}
    ]},
    {"molecule": "CC(=O)O[C@@H]1C[C@@]23C[C@@]24CC[C@H](O[C@@H]2OC[C@@H](O)[C@H](O)[C@H]2O)C(C)(C)[C@@H]4CC[C@H]3[C@]2(C)C[C@@H]3O[C@@]4(C[C@@H](C)[C@@H]3[C@@]12C)OC[C@@]1(C)O[C@@H]41", "note": "[23-epi-26-deoxyactein]", "values": [
      {"measurement": "IC50", "setting": "MCF7 cells [2]", "value": 21, "unit": "µg/mL"},
      {"measurement": "IC50", "setting": "MCF7 cells [2]; [9]", "value": 32, "unit": "µM"},
      {"measurement": "cell-cycle arrest", "setting": "MCF7 cells [3]", "value": "induced cell-cycle arrest at G1"}
    ]},
    {"molecule": "C[C@@H]1C[C@@H]2O[C@@]3(O[C@@H]2C(C)(C)O)[C@H](O)[C@@]2(C)[C@@H]4CC[C@H]5C(C)(C)[C@@H](O)CC[C@@]56C[C@@]46CC[C@]2(C)[C@@H]13", "note": "[Cimigenol, cimigenol]", "values": [
      {"measurement": "effect on the growth of human breast cancer cells", "setting": "MDA-MB-453 cells [4]", "value": "less active than cimigenol glycoside"}
    ]},
    {"molecule": "COc1cccc2c1C(=O)c1c(O)c3c(c(O)c1C2=O)C[C@@](O)(C(=O)CO)C[C@@H]3O[C@H]1C[C@H](N)[C@H](O)[C@H](C)O1", "note": "[Doxorubicin, doxorubicin, reference compound]", "values": [
      {"measurement": "G1 (%)", "setting": "MDA-MB-453 cells [1]; (c) Doxorubicin 0.1 μg/mL", "value": 30.1, "unit": "%"},
      {"measurement": "G2/M (%)", "setting": "MDA-MB-453 cells [1]; (c) Doxorubicin 0.1 μg/mL", "value": 61.7, "unit": "%"},
      {"measurement": "S (%)", "setting": "MDA-MB-453 cells [1]; (c) Doxorubicin 0.1 μg/mL", "value": 5.6, "unit": "%"},
      {"measurement": "Sub G1 (%)", "setting": "MDA-MB-453 cells [1]; (c) Doxorubicin 0.1 μg/mL", "value": 2.5, "unit": "%"}
    ]},
    {"molecule": "CC(=O)O[C@@H]1C[C@@]23C[C@@]24CC[C@H](O[C@@H]2OC[C@@H](O)[C@H](O)[C@H]2O)C(C)(C)[C@@H]4CC=C3[C@]2(C)C[C@@H]3O[C@@]4(O)[C@H](OC(C)(C)[C@H]4O)[C@@H](C)[C@@H]3[C@@]12C", "note": "[cimiracemoside A]", "values": [
      {"measurement": "IC50", "setting": "MCF7 cells [2]", "value": 41, "unit": "µg/mL"},
      {"measurement": "IC50", "setting": "MCF7 cells [2]; [9]", "value": 61, "unit": "µM"},
      {"measurement": "cell-cycle arrest", "setting": "MCF7 cells [3]", "value": "induced cell-cycle arrest at G1"}
    ]},
    {"molecule": "COc1cc(/C=C/C(=O)O)ccc1O", "note": "[ferulic, ferulic acid]", "values": [
      {"measurement": "effect on the growth of MCF7 cells", "setting": "MCF7 cells [2]", "value": "active in suppressing the growth"}
    ]},
    {"molecule": "COc1ccc(/C=C/C(=O)O)cc1O", "note": "[isoferulic, isoferulic acid]", "values": [
      {"measurement": "effect on the growth of MCF7 cells", "setting": "MCF7 cells [2]", "value": "active in suppressing the growth"}
    ]},
    {"molecule": "CC(=O)O[C@H]1C(=O)[C@@]2(C)[C@H]([C@H](OC(=O)c3ccccc3)[C@]3(O)C[C@H](OC(=O)[C@H](O)[C@@H](NC(=O)c4ccccc4)c4ccccc4)C(C)=C1C3(C)C)[C@]1(OC(C)=O)CO[C@@H]1C[C@@H]2O", "note": "[paclitaxel, reference compound]", "values": [
      {"measurement": "number of viable cells, average", "setting": "MDA-MB-453 cells [5]; tax 1", "value": 118624},
      {"measurement": "number of viable cells, average", "setting": "MDA-MB-453 cells [5]; tax 4", "value": 37060.67},
      {"measurement": "number of viable cells, average", "setting": "MDA-MB-453 cells [5]; tax .25 (nM)", "value": 198416.3},
      {"measurement": "G1 (%)", "setting": "MDA-MB-453 cells [1]; (b) Taxol 1 nM", "value": 71.0, "unit": "%"},
      {"measurement": "G2/M (%)", "setting": "MDA-MB-453 cells [1]; (b) Taxol 1 nM", "value": 17.0, "unit": "%"},
      {"measurement": "S (%)", "setting": "MDA-MB-453 cells [1]; (b) Taxol 1 nM", "value": 10.8, "unit": "%"},
      {"measurement": "Sub G1 (%)", "setting": "MDA-MB-453 cells [1]; (b) Taxol 1 nM", "value": 1.0, "unit": "%"},
      {"measurement": "percent inhibition of in vitro Na^+-K^+-ATPase activity", "setting": "Na^+-K^+-ATPase", "value": 21.7, "unit": "%"},
      {"measurement": "cell survival", "setting": "MDA-MB-453 cells [6]; paclitaxel 1 nM alone", "value": 63.2, "unit": "%"},
      {"measurement": "IC50", "setting": "[7]", "value": "~16", "unit": "µM"}
    ]},
    {"molecule": "CCC(C)(C)C(=O)O[C@H]1C[C@@H](C)C=C2C=C[C@H](C)[C@H](CC[C@@H]3C[C@@H](O)CC(=O)O3)[C@H]21", "note": "[simvastatin]", "values": [
      {"measurement": "IC50", "setting": "MDA-MB-453 cells [8]", "value": 21.5, "unit": "µM"},
      {"measurement": "viability at 20 µg/mL", "setting": "MDA-MB-453 cells [6]; Homo sapiens, MDA-MB-453, read-out: percent viable cells", "value": 83.1, "unit": "%"},
      {"measurement": "cell survival", "setting": "MDA-MB-453 cells [6]; simvastatin 40 ug/ml alone", "value": 58.2, "unit": "%"}
    ]},
    {"molecule": "cimifugoside", "values": [
      {"measurement": "IC50", "setting": "MCF7 cells [2]", "value": 22, "unit": "µg/mL"},
      {"measurement": "IC50", "setting": "MCF7 cells [2]; [9]", "value": 36, "unit": "µM"}
    ]}
  ]
}
